From BigSolDB 2.1

Details: 298.15 K

O=C(C(=O)c1ccccc1)c1ccccc1
Details | solubility (mole fraction)
in 2,2,2-trifluoroethanol | 0.0352
in 2-butanone | 0.184
in 2-methyl-1-pentanol | 0.0139
in 3,7-dimethyl-1-octanol | 0.0173
in DMSO | 0.0228
in acetone | 0.16
in acetonitrile | 0.0635
in butyronitrile | 0.151
in chlorobenzene | 0.201
in cyclohexanone | 0.241
in diethyl ether | 0.0674
in diisopropyl ether | 0.0309
in methyl acetate | 0.152
in n-decane | 0.00855
in n-decanol | 0.0212
in n-hexadecane | 0.0118
in propionitrile | 0.129
in propylene carbonate | 0.094
in tert-butanol | 0.0106
